Measured values as given in US12312359B2 (Vitae Pharmaceuticals, LLC, priority 2016, dated 2025).

How the values were obtained:
[1] = molecular target: T1, biotinylated wild-type menin and MLL-AF9 fusion protein (menin/MLL binding) (Homo sapiens, UniProt O00255); test: Assay 1: menin/MLL binding AlphaLISA assay, wild-type menin; details: Table 30; column head does not say wild-type or mutated menin
T1 construct: made in house; host or cells: menin: E. coli; MLL-AF9-FLAG: HEK293 cells, used as cleared lysate
T1 sequence (O00255 1-610): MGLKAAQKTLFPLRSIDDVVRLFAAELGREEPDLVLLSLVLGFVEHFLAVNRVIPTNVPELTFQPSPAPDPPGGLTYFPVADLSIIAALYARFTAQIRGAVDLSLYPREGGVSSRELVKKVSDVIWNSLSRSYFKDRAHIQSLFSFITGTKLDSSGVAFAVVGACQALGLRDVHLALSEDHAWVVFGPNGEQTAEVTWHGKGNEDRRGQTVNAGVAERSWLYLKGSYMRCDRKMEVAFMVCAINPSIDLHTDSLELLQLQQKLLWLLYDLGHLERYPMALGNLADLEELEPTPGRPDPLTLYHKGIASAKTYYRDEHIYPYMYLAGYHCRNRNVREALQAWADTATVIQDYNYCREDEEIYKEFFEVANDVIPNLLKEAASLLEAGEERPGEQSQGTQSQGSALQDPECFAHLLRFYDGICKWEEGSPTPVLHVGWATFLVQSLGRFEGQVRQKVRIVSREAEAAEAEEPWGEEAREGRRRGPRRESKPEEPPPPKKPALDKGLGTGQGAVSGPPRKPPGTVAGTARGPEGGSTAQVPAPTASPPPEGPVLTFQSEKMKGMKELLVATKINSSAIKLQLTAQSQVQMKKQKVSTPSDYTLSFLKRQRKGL
Procedure, shortened: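 Compound was preincubated 30 min at room temperature with biotinylated menin (5 nM) and MLL-AF9-FLAG lysate from HEK293 cells, pH 7.4 buffer with 5% DMSO and DTT. Bead-based Alpha signal after 60 min with streptavidin donor and anti-FLAG acceptor beads; four-parameter logistic fit gave IC50.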

[2] = tested on: human acute monocytic leukemia cell line MV-4-11; test: Assay 2: cell proliferation assay (ATP quantitation, CellTiter-Glo), MV-4-11; assay type: cell-based; details: Homo sapiens, MV4-11, 72 h, MV-4-11 cells
Procedure, shortened: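 MV-4-11 cells, 1.67×10^4 per well in medium with 10% FBS, were exposed to compound for 72 h at 37° C., 5% CO2; HL-60 cells served as toxicity control. Proliferation read as ATP content by CellTiter-Glo luminescence.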

SMILES	IC50 [1]	EC50 [2]
CC(C)c1ncncc1-c1cc(F)ccc1Oc1cncnc1N1CC2(CC(NCC34CC(C#N)(C3)C4)C2)C1 [Example 118, 3-(((2-(5-(4-fluoro-2-(4-isopropylpyrimidin-5-yl)phenoxy)pyrimidin-4-yl)-2-azaspiro[3.3]heptan-6-yl)amino)methyl)bi-cyclo[1.1.1]pentane-1-carbonitrile]	< 100 nM	100 to 1000 nM
CCN(C(=O)C(C)C)c1cc(F)ccc1Oc1cncnc1N1CC2(CN(C(=O)C3Cc4ccc(Br)cc4C3)C2)C1 (stereo not drawn) [Example 120, N-(2-((4-(6-(5-bromo-2,3-dihydro-1H-indene-2-carbonyl)-2,6-diazaspiro [3.3]heptan-2-yl)pyrimidin-5-yl)oxy)-5-fluorophenyl)-N-ethylisobutyramide]	< 100 nM	< 100 nM
CC(C)N(C(=O)c1cc(F)ccc1Oc1cncnc1N1CCC2(CCN(Cc3ccc4[nH]c(=O)[nH]c4c3)C2)C1)C1CC1 (stereo not drawn) [Example 122, N-cyclopropyl-5-fluoro-N-isopropyl-2-((4-(7-((2-oxo-2,3-dihydro-1H-benzo[d]imidazol-5-yl)methyl)-2,7-diazaspiro[4.4]nonan-2-yl)pyrimidin-5-yl)oxy)benzamide]	< 100 nM	< 100 nM
CC(=O)NCCn1c(=O)[nH]c2cc(CN3CCC4(CCN(c5ncncc5Oc5ccc(F)cc5C(=O)N(C)C(C)C)C4)C3)ccc21 (stereo not drawn) [Example 123, 2-((4-(7-((1-(2-acetamidoethyl)-2-oxo-2,3-dihydro-1H-benzo[d]imidazol-5-yl)methyl)-2,7-diazaspiro[4.4]nonan-2-yl)pyrimidin-5-yl)oxy)-5-fluoro-N-isopropyl-N-methylbenzamide]	< 100 nM	≥ 1000 nM
CC(C)N(C)C(=O)c1cc(F)ccc1Oc1cncnc1N1CCC2(CCN(Cc3ccc4c(c3)[nH]c(=O)n4CCN(C)C)C2)C1 (stereo not drawn) [Example 124, 2-((4-(7-((1-(2-(dimethylamino)ethyl)-2-oxo-2,3-dihydro-1H-benzo[d]imidazol-5-yl)methyl)-2,7-diazaspiro[4.4]nonan-2-yl)pyrimidin-5-yl)oxy)-5-fluoro-N-isopropyl-N-methylbenzamide]	< 100 nM	100 to 1000 nM
CC(C)N(C)C(=O)c1cc(F)ccc1Oc1cncnc1N1CCC2(CCN(Cc3ccc4c(c3)NC(=O)C4(C)C#N)C2)C1 (stereo not drawn) [Example 125, 2-((4-(7-((3-cyano-3-methyl-2-oxoindolin-6-yl)methyl)-2,7-diazaspiro [4.4]nonan-2-yl)pyrimidin-5-yl)oxy)-5-fluoro-N-isopropyl-N-methylbenzamide]	< 100 nM	< 100 nM
Cc1ncc(Oc2ccc(F)cc2-c2ccnn2C(C)C)c(N2CCC3(CCN(Cc4ccc5[nH]c(=O)[nH]c5c4)C3)C2)n1 (stereo not drawn) [Example 126, 5-((7-(5-(4-fluoro-2-(1-isopropyl-1H-pyrazol-5-yl)phenoxy)-2-methylpyrimidin-4-yl)-2,7-diazaspiro[4.4]nonan-2-yl)methyl)-1,3-dihydro-2H-benzo[d]imidazol-2-one]	< 100 nM	100 to 1000 nM
CC(C)N(C)C(=O)c1cc(F)ccc1Oc1cncnc1N1CCC2(CN(C(=O)Cc3ccc(C#N)cc3)C2)C1 [Example 127, 2-((4-(2-(2-(4-cyanophenyl)acetyl)-2,6-diazaspiro[3.4]octan-6-yl)pyrimidin-5-yl)oxy)-5-fluoro-N-isopropyl-N-methylbenzamide]	< 100 nM	100 to 1000 nM
CCn1c(=O)[nH]c2cc(CN3CCC4(CCN(c5ncncc5Oc5ccc(F)cc5C(=O)N(C)C(C)C)C4)C3)ccc21 (stereo not drawn) [Example 128, 2-((4-(7-((1-ethyl-2-oxo-2,3-dihydro-1H-benzo[d]imidazol-5-yl)methyl)-2,7-diazaspiro[4.4]nonan-2-yl)pyrimidin-5-yl)oxy)-5-fluoro-N-isopropyl-N-methylbenzamide]	< 100 nM	100 to 1000 nM
COCCn1c(=O)[nH]c2cc(CN3CCC4(CCN(c5ncncc5Oc5ccc(F)cc5C(=O)N(C)C(C)C)C4)C3)ccc21 (stereo not drawn) [Example 129, 5-fluoro-N-isopropyl-2-((4-(7-((1-(2-methoxyethyl)-2-oxo-2,3-dihydro-1H-benzo[d]imidazol-5-yl)methyl)-2,7-diazaspiro[4.4]nonan-2-yl)pyrimidin-5-yl)oxy)-N-methyl-benzamide]	< 100 nM	100 to 1000 nM
CC(C)c1ncncc1-c1cc(F)ccc1Oc1cncnc1N1CCC2(CN(C(=O)Cc3ccc(C#N)cc3)C2)C1 [Example 130, 4-(2-(6-(5-(4-fluoro-2-(4-isopropylpyrimidin-5-yl)phenoxy)pyrimidin-4-yl)-2,6-diazaspiro[3.4]octan-2-yl)-2-oxoethyl)benzonitrile]	< 100 nM	100 to 1000 nM
CC(C)c1ncncc1-c1cc(F)ccc1Oc1cncnc1N1CC2(CN(C(=O)Cc3ccc4c(c3)NC(=O)C4(C)C)C2)C1 [Example 133, 6-(2-(6-(5-(4-fluoro-2-(4-isopropylpyrimidin-5-yl)phenoxy)pyrimidin-4-yl)-2,6-diazaspiro[3.3]heptan-2-yl)-2-oxoethyl)-3,3-dimethylindolin-2-one]	< 100 nM	100 to 1000 nM
CC(C)N(C)C(=O)c1cc(F)ccc1Oc1cncnc1N1CC2(CN(CC[C@H]3CC[C@H](NC(=O)OC(C)(C)C)CC3)C2)C1 [Example 134, tert-butyl ((1r,4r)-4-(2-(6-(5-(4-fluoro-2-(isopropyl(methyl)carbamoyl)phenoxy)pyrimidin-4-yl)-2,6-diazaspiro[3.3]heptan-2-yl)ethyl)cyclohexyl) carbamate]	< 100 nM	100 to 1000 nM
CC(C)N(C)Cc1cc(F)ccc1Oc1cncnc1N1CCC2(CCN(Cc3ccc4[nH]c(=O)[nH]c4c3)C2)C1 (stereo not drawn) [Example 135, 5-((7-(5-(4-fluoro-2-((isopropyl(methyl)amino)methyl)phenoxy)pyrimidin-4-yl)-2,7-diazaspiro[4.4]nonan-2-yl)methyl)-1,3-dihydro-2H-benzo[d]imidazol-2-one]	< 100 nM	≥ 1000 nM

More lines, now with the values ahead:

IC50 [1]	EC50 [2]	SMILES
< 100 nM	100 to 1000 nM	CCN(C(=O)C(C)C)c1cc(F)ccc1Oc1cncnc1N1CC2(CN(C(=O)C3Cc4ccc(S(C)(=O)=O)cc4C3)C2)C1 (stereo not drawn) [Example 117, N-ethyl-N-(5-fluoro-2-((4-(6-(5-(methylsulfonyl)-2,3-dihydro-1H-indene-2-carbonyl)-2,6diazaspiro[3.3]heptan-2-yl)pyrimidin-5-yl)oxy)phenyl)iso-butyramide]
< 100 nM	100 to 1000 nM	CCN(C(=O)C(C)C)c1cc(F)ccc1Oc1cncnc1N1CC2(CN(C(=O)Cc3ccc(S(C)(=O)=O)cc3)C2)C1 [Example 119, N-ethyl-N-(5-fluoro-2-((4-(6-(2-(4-(methylsulfonyl)phenyl)acetyl)-2,6-diazaspiro[3.3]heptan-2-yl)pyrimidin-5-yl)oxy)phenyl)isobutyramide]
< 100 nM	100 to 1000 nM	CCN(C(=O)C(C)C)c1cc(F)ccc1Oc1cncnc1N1CC2(CN(CC3CCOCC3)C2)C1 [Example 121, N-ethyl-N-(5-fluoro-2-((4-(6-((tetrahydro-2H-pyran-4-yl)methyl)-2,6-diazaspiro[3.3]heptan-2-yl)pyrimidin-5-yl)oxy)phenyl)isobutyramide]
< 100 nM	< 100 nM	COCCn1c(=O)[nH]c2cc(CN3CCC4(CCN(c5ncncc5Oc5ccc(F)cc5-c5cncnc5C(C)C)C4)C3)ccc21 (stereo not drawn) [Example 131, 5-((7-(5-(4-fluoro-2-(4-isopropylpyrimidin-5-yl)phenoxy)pyrimidin-4-yl)-2,7-diazaspiro[4.4]nonan-2-yl)methyl)-1-(2-methoxyethyl)-1,3-dihydro-2H-benzo[d]imidazol-2-one]
< 100 nM	100 to 1000 nM	COc1ccc(CC(=O)N2CC3(C2)CN(c2ncncc2Oc2ccc(F)cc2-c2cncnc2C(C)C)C3)cn1 [Example 132, 1-(6-(5-(4-fluoro-2-(4-isopropylpyrimidin-5-yl)phenoxy)pyrimidin-4-yl)-2,6-diazaspiro[3.3]heptan-2-yl)-2-(6-methoxypyridin-3-yl)ethan-1-one]
< 100 nM	100 to 1000 nM	CCN(C(=O)C(C)C)c1cc(F)ccc1Oc1cncnc1N1CC2(CCN(CC(C)C)C2)C1 [Example 136, N-ethyl-N-(5-fluoro-2-((4-(6-isobutyl-2,6-diazaspiro[3.4]octan-2-yl)pyrimidin-5-yl)oxy)phenyl)iso-butyramide]
< 100 nM	100 to 1000 nM	CCN(C(=O)C(C)C)c1cc(F)ccc1Oc1cncnc1N1CC2(CCN(CC3CCC(F)(F)CC3)C2)C1 [Example 137, N-(2-((4-(6-((4,4-difluorocyclohexyl)methyl)-2,6-diazaspiro[3.4]octan-2-yl)pyrimidin-5-yl)oxy)-5-fluorophenyl)-N-ethylisobutyramide]
